From patent US10738042B2, “Phosphonamidates that are Bcl family antagonists for use in clinical management of conditions caused or mediated by senescent cells and for treating cancer” (Unity Biotechnology, priority 2018, dated 2020)

Assays:
[1] = tested on: cancer cells in human patients; conditions: cited from earlier work
[2] = tested on: 3MR or INK-ATTAC mice exposed to cigarette smoke; test: Cigarette smoke COPD model, oxygen saturation by pulse oximeter; format: in vivo, mouse; conditions: after two months of cigarette smoke exposure; FIG. 8
Excerpt: The mice used in this study include the 3MR strain, described in US 2017/0027139 A1 and in Demaria et al., Dev Cell. 2014 Dec. 22; 31(6): 722-733. The 3MR mouse has a transgene encoding thymidine kinase that converts the prodrug ganciclovir (GCV) to a compound that is lethal to cells. The enzyme in the transgene is placed under control of the p16 promoter, which causes it to be specifically expressed in senescent cells. Treatment of the mice with GCV eliminates senescent cells.
Other mice used in this study include the INK-ATTAC strain, described in US 2015/0296755 A1 and in Baker et al., Nature 2011 Nov. 2; 479(7372):232-236. The INK-ATTAC mouse has a transgene encoding switchable caspase 8 under control of the p16 promoter. The caspase 8 can be activated by treating the mice with the switch compound AP20187, whereupon the caspase 8 directly induces apoptosis in senescent cells, eliminating them from the mouse.
To conduct the experiment, six-week-old 3MR (n=35) or INK-ATTAC (n=35) mice were chronically exposed to cigarette smoke generated from a Teague TE-10 system, an automatically-controlled cigarette smoking machine that produces a combination of side-stream and mainstream cigarette smoke in a chamber, which is transported to a collecting and mixing chamber where varying amounts of air is mixed with the smoke mixture. The COPD protocol was adapted from the COPD core facility at Johns Hopkins University (Rangasamy et al., 2004, J. Clin. Invest. 114:1248-1259; Yao et al., 2012, J. Clin. Invest. 122:2032-2045).
Mice received a total of 6 hours of cigarette smoke exposure per day, 5 days a week for 6 months. Each lighted cigarette (3R4F research cigarettes containing 10.9 mg of total particulate matter (TPM), 9.4 mg of tar, and 0.726 mg of nicotine, and 11.9 mg carbon monoxide per cigarette [University of Kentucky, Lexington, Ky.]) was puffed for 2 seconds and once every minute for a total of 8 puffs, with the flow rate of 1.05 L/min, to provide a standard puff of 35 cm3. The smoke machine was adjusted to produce a mixture of side stream smoke (89%) and mainstream smoke (11%) by smoldering 2 cigarettes at one time. The smoke chamber atmosphere was monitored for total suspended particulates (80-120 mg/m3) and carbon monoxide (350 ppm). […]
After two months of cigarette smoke (CS) exposure, lung function was assessed by monitoring oxygen saturation using the MouseSTAT PhysioSuite™ pulse oximeter (Kent Scientific). […] Mice were monitored for 30 seconds and the average peripheral capillary oxygen saturation (SpO2) measurement over this duration was calculated.

[3] = tested on: C57BL/6J mice with ACL surgery-induced osteoarthritis; test: Osteoarthritis model, weight bearing test; format: in vivo, mouse; conditions: 4 weeks post-surgery; FIG. 6A
Experimental: (§1) The model was implemented as follows. C57BL/6J mice underwent surgery to cut the anterior cruciate ligament of one rear limb to induce osteoarthritis in the joint of that limb. During week 3 and week 4 post-surgery, the mice were treated with 5.8 μg of Nutlin-3A (n=7) per operated knee by intra-articular injection, q.o.d. for 2 weeks. At the end of 4 weeks post-surgery, joints of the mice were monitored for presence of senescent cells, assessed for function, monitored for markers of inflammation, and underwent histological assessment.
Function of the limbs was assessed 4 weeks post-surgery by a weight bearing test to determine which leg the mice favored. The mice were allowed to acclimate to the chamber on at least three occasions prior to taking measurements. Mice were maneuvered inside the chamber to stand with one hind paw on each scale. The weight that was placed on each hind limb was measured over a three second period. At least three separate measurements were made for each animal at each time point. The results were expressed as the percentage of the weight placed on the operated limb versus the contralateral unoperated limb.

[4] = tested on: p16, IL-6, MMP13 expression in the operated joint; test: Osteoarthritis model (ACL surgery), qRT-PCR of senescence markers and SASP factors in operated joints; format: in vivo, mouse; conditions: 5.8 μg per operated knee intra-articular, 4 weeks post-surgery
Experimental: as §1
Two control groups of mice were included in the studies performed: one group comprising C57BL/6J or 3MR mice that had undergone a sham surgery (n=3) (i.e., surgical procedures followed except for cutting the ACL) and intra-articular injections of vehicle parallel to the GCV (ganciclovir) treated group; and one group comprising C57BL/6J or 3MR mice that had undergone an ACL surgery and received intra-articular injections of vehicle (n=5) parallel to the GCV-treated group. RNA from the operated joints of mice from the Nutlin-3A treated mice was analyzed for expression of SASP factors (mmp3, IL-6) and senescence markers (p16). qRT-PCR was performed to detect mRNA levels.

[5] = tested on: SASP factors and senescent cell markers in the aortic arch; test: Atherosclerosis model, RT-PCR of SASP factors and senescent cell markers in aortic arches; format: in vivo, mouse; conditions: HFD, 25 mg/kg intraperitoneally
Experimental: Two groups of LDLR−/− mice (10 weeks) are fed a high fat diet (HFD) (Harlan Teklad TD.88137) having 42% calories from fat, beginning at Week 0 and throughout the study. Two groups of LDLR−/− mice (10 weeks) are fed normal chow (−HFD). From weeks 0-2, one group of HFD mice and −HFD mice are treated with Nutlin-3A (25 mg/kg, intraperitoneally). One treatment cycle is 14 days treatment, 14 days off. Vehicle is administered to one group of HFD mice and one group of −HFD mice. At week 4 (timepoint 1), one group of mice are sacrificed and to assess presence of senescent cells in the plaques. For the some of the remaining mice, Nutlin-3A and vehicle administration is repeated from weeks 4-6. […]
At the end of timepoint 1, LDLR−/− mice fed a HFD and treated with Nutlin-3A or vehicle were sacrificed (n=3, all groups), and the aortic arches were dissected for RT-PCR analysis of SASP factors and senescent cell markers. Values were normalized to GAPDH and expressed as fold-change versus age-matched, vehicle-treated LDLR−/− mice on a normal diet.
At the end of timepoint 2, LDLR−/− mice fed a HFD and treated with Nutlin-3A or vehicle (n=3 for all groups) were sacrificed, and aortic arches were dissected for RT-PCR analysis of SASP factors and senescent cell markers. Values were normalized to GAPDH and expressed as fold-change versus age-matched, vehicle-treated LDLR−/− mice on a normal diet.

[6] = tested on: LDLR-/- mice fed a high fat diet; test: Atherosclerosis model, body composition (MRI) and circulating blood cell counts (Hemavet); format: in vivo, mouse; conditions: timepoint 3 (week 12)
Experimental: (§2) Two groups of LDLR−/− mice (10 weeks) are fed a high fat diet (HFD) (Harlan Teklad TD.88137) having 42% calories from fat, beginning at Week 0 and throughout the study. Two groups of LDLR−/− mice (10 weeks) are fed normal chow (−HFD). From weeks 0-2, one group of HFD mice and −HFD mice are treated with Nutlin-3A (25 mg/kg, intraperitoneally). One treatment cycle is 14 days treatment, 14 days off. Vehicle is administered to one group of HFD mice and one group of −HFD mice. At week 4 (timepoint 1), one group of mice are sacrificed and to assess presence of senescent cells in the plaques. For the some of the remaining mice, Nutlin-3A and vehicle administration is repeated from weeks 4-6. At week 8 (timepoint 2), the mice are sacrificed and to assess presence of senescent cells in the plaques. The remaining mice are treated with Nutlin-3A or vehicle from weeks 8-10. At week 12 (timepoint 3), the mice are sacrificed and to assess the level of plaque and the number of senescent cells in the plaques.
(§3) At the end of timepoint 3, LDLR−/− mice fed a HFD and treated with Nutlin-3A or vehicle (n=3 for all groups) were sacrificed, and aortas were dissected and stained with Sudan IV to detect the presence of lipid. Body composition of the mice was analyzed by MRI, and circulating blood cells were counted by Hemavet™.

[7] = tested on: C57BL/6J mice with ACL surgery-induced osteoarthritis; test: Osteoarthritis model, histopathology of joint tissue; format: in vivo, mouse; conditions: FIGS. 6B-6D
Experimental: as §1

[8] = tested on: LDLR-/- mice fed a high fat diet; test: Atherosclerosis model, Sudan IV staining of aortas for plaque; format: in vivo, mouse; conditions: HFD; 25 mg/kg intraperitoneally; timepoint 3 (week 12); FIG. 9
Experimental: as §2, §3

SMILES: CN(C)CC[C@H](CSc1ccccc1)Nc1ccc(S(=O)(=O)NC(=O)c2ccc(N3CCN(Cc4ccccc4-c4ccc(Cl)cc4)CC3)cc2)cc1[N+](=O)[O-] [ABT-737]
- effect against cancer cells in human patients [1]: effective against some types of cancer cells

SMILES: COc1ccc(C2=N[C@@H](c3ccc(Cl)cc3)[C@@H](c3ccc(Cl)cc3)N2C(=O)N2CCNC(=O)C2)c(OC(C)C)c1 [Nutlin-3A]
- SpO2 levels compared with untreated controls [2]: statistically significant increases
- weight bearing: favoring of the unoperated hind limb over the operated hind limb [3]: abrogated this effect
- expression of p16 in the tissue ([4]; q.o.d. for 2 weeks, FIG. 5A): reduced the expression back to below the level of the controls
- expression of IL-6 in the tissue ([4]; q.o.d. for 2 weeks, FIG. 5B): reduced the expression back to below the level of the controls
- expression of MMP13 in the tissue ([4]; q.o.d. for 2 weeks, FIG. 5C): reduced the expression back to below the level of the controls
- senescent cells in the joint [4]: cleared senescent cells from the joint
- expression of SASP factors and senescent cell markers MMP3, MMP13, PAI1, p21, IGFBP2, IL-1A, IL-1B ([5]; after one treatment cycle (timepoint 1, week 4)): reduced expression
- expression of SASP factors and senescent cell markers in the aortic arch ([5]; multiple treatment cycles (timepoint 2, week 8)): reduced expression of most markers
- lymphocyte counts versus vehicle treated mice [6]: equivalent
- platelet counts versus vehicle treated mice [6]: equivalent
- destruction of the proteoglycan layer (histopathology) [7]: completely abrogated this effect
- reduction of surface area covered by plaques in the descending aorta [8]: about 45%

SMILES: CC1(C)CCC(c2ccc(Cl)cc2)=C(CN2CCN(c3ccc(C(=O)NS(=O)(=O)c4ccc(N[C@H](CCN5CCOCC5)CSc5ccccc5)c(S(=O)(=O)C(F)(F)F)c4)cc3)CC2)C1 [ABT-263]
- SpO2 levels compared with untreated controls [2]: statistically significant increases

SMILES: CC[C@H](C(=O)N1CCCC[C@H]1C(=O)O[C@H](CCc1ccc(OC)c(OC)c1)c1cccc(OCC(=O)NCC(CNC(=O)COc2cccc([C@@H](CCc3ccc(OC)c(OC)c3)OC(=O)[C@@H]3CCCCN3C(=O)[C@@H](CC)c3cc(OC)c(OC)c(OC)c3)c2)CN(C)C)c1)c1cc(OC)c(OC)c(OC)c1 [AP2018]
- SpO2 levels compared with untreated controls [2]: statistically significant increases

SMILES: Nc1nc(O)c2ncn(COC(CO)CO)c2n1 [ganciclovir]
- SpO2 levels compared with untreated controls [2]: statistically significant increases
